Patent US7988958B2, “Enterococcus and Streptococcus strains and bacteriocins” (The United States of America as represented by the …, priority 2005, dated 2011)

B1: Bacteriocin 760: bacteriocin produced by Enterococcus durans/faecium/hirae NRRL B-30745 (strain 760); amino acid sequence SEQ ID NO 2 (protein, listed as Streptococcus cricetus)
chain: NRWYCNSAAGGVGGAAVCGLAGYVGEAKENIAGEVRKGWGMAGGFTHNKACKSFPGSGWASG

What was measured:
[1] = system: E. coli O157:H7 904; assay: Spot test; type: cell-based; details: for Inhibiting activity in Spot Test: crude antimicrobial preparation (CAP), E. coli O157:H7 904; for Inhibiting Activity, Spot Test: purified bacteriocin, E. coli O157:H7
[2] = system: Campylobacter spp. B-3; assay: MIC by agar diffusion; type: cell-based; details: Campylobacter spp. strain B-3
Method: (§1) The susceptibility of Campylobacter spp. to purified preparations of bacteriocins 760 and E50-52 was determined using strains isolated from broiler chicks as described above in Example 1. Antagonistic activity of the bacteriocins was assessed on the basis of minimum inhibitory concentrations (MICs) which were determined by agar diffusion. […] All the tested bacteriocins are highly antagonistic to the Campylobacter spp. strains.

[3] = system: Campylobacter spp. Cez-4; assay: MIC by agar diffusion; type: cell-based; details: Campylobacter spp. strain Cez-4
Method: as §1

[4] = system: Campylobacter spp. F-1; assay: MIC by agar diffusion; type: cell-based; details: Campylobacter spp. strain F-1
Method: as §1

[5] = system: Campylobacter spp. G-1; assay: MIC by agar diffusion; type: cell-based; details: Campylobacter spp. strain G-1
Method: as §1

[6] = system: Campylobacter spp. G-2; assay: MIC by agar diffusion; type: cell-based; details: Campylobacter spp. strain G-2
Method: as §1

[7] = system: Campylobacter spp. I/U-1; assay: MIC by agar diffusion; type: cell-based; details: Campylobacter spp. strain I/U-1
Method: as §1

[8] = system: Campylobacter spp. Ind18/2; assay: MIC by agar diffusion; type: cell-based; details: Campylobacter spp. strain Ind18/2
Method: as §1

[9] = system: Campylobacter spp. K-10; assay: MIC by agar diffusion; type: cell-based; details: Campylobacter spp. strain K-10
Method: as §1

[10] = system: Campylobacter spp. P-21; assay: MIC by agar diffusion; type: cell-based; details: Campylobacter spp. strain P-21
Method: as §1

[11] = system: Campylobacter spp. P-24; assay: MIC by agar diffusion; type: cell-based; details: Campylobacter spp. strain P-24
Method: as §1

[12] = system: Campylobacter spp. P-27; assay: MIC by agar diffusion; type: cell-based; details: Campylobacter spp. strain P-27
Method: as §1

[13] = system: Campylobacter spp. P-28; assay: MIC by agar diffusion; type: cell-based; details: Campylobacter spp. strain P-28
Method: as §1

[14] = system: Campylobacter spp. P-2; assay: MIC by agar diffusion; type: cell-based; details: Campylobacter spp. strain P-2
Method: as §1

[15] = system: Campylobacter spp. P-31; assay: MIC by agar diffusion; type: cell-based; details: Campylobacter spp. strain P-31
Method: as §1

[16] = system: Campylobacter spp. P-32; assay: MIC by agar diffusion; type: cell-based; details: Campylobacter spp. strain P-32
Method: as §1

[17] = system: S. enteritidis 1; assay: MIC by spot test; type: cell-based
[18] = system: S. enteritidis 4; assay: MIC by spot test; type: cell-based
[19] = system: S. enteritidis 237; assay: MIC by spot test; type: cell-based
[20] = system: S. typhimurium 320; assay: MIC by spot test; type: cell-based
[21] = system: E. coli HB101; assay: MIC by spot test; type: cell-based
[22] = system: Y. enterocolitica 03; assay: MIC by spot test; type: cell-based
[23] = system: Y. enterolitica 09; assay: MIC by spot test; type: cell-based, Y. enterocolitica
[24] = system: Y. enterolitica 04; assay: MIC by spot test; type: cell-based, Y. enterocolitica
[25] = system: Staphylococcus epidermidis; assay: MIC by spot test; type: cell-based
[26] = system: Proteus mirabilis; assay: MIC by spot test; type: cell-based
[27] = system: L. monocytogenes 9-72; assay: MIC by spot test; type: cell-based
[28] = system: Helicobacter pylori; assay: MIC of purified bacteriocins and antibiotic by Spot Test; type: cell-based; details: H. pylori; 24 hours at 37° C., microaerobic
Method: (§2) The minimal inhibiting concentrations (MICs) of bacteriocins 760 and 50-52 and Methicillin were determined by Spot Test. Various concentrations of purified bacteriocins (μg/ml) in a volume of 10 μl was added to cultures of Staphylococcus aureus, Staphylococcus epidermidis, Pseudomonas aeruginosa, and Helicobacter pylori. The cultures were incubated for about 24 hours at about 37° C. under aerobic conditions for all but Helicobacter pylori which was incubated under microaerobic conditions.

[29] = system: Pseudomonas aeruginosa; assay: as above; type: cell-based; details: P. aeruginosa; 24 hours at 37° C., aerobic
Method: as §2

[30] = system: Staphylococcus aureus; assay: as above; type: cell-based; details: S. aureus; 24 hours at 37° C., aerobic
Method: as §2

[31] = system: Staphylococcus epidermidis; assay: as above; type: cell-based; details: S. epidermidis; 24 hours at 37° C., aerobic
Method: as §2

Molecule | Inhibiting activity in Spot Test [1] | Inhibiting Activity, Spot Test [1] | MICs [2] [µg/mL] | MICs [3] [µg/mL] | MICs [4] [µg/mL] | MICs [5] [µg/mL] | MICs [6] [µg/mL] | MICs [7] [µg/mL] | MICs [8] [µg/mL] | MICs [9] [µg/mL] | MICs [10] [µg/mL] | MICs [11] [µg/mL] | MICs [12] [µg/mL] | MICs [13] [µg/mL] | MICs [14] [µg/mL] | MICs [15] [µg/mL] | MICs [16] [µg/mL] | MIC of purified Bacteriocins and Antibiotic [28] [mg/L] | MIC of purified Bacteriocins and Antibiotic [29] [mg/L] | MIC of purified Bacteriocins and Antibiotic [30] [mg/L] | further results
Bacteriocin 50-52: bacteriocin produced by Enterococcus durans/faecium/hirae NRRL B-30746 (strain 50-52); amino acid sequence SEQ ID NO 1 (TTKNYGNGVCNSVNWCQCGNVWASCNLATGCAAWLCKLA; listed as Enterococcus faecium) | 3,200 AU/ml | 6,400 AU/ml | 0.05 | 0.1 | 0.1 | 0.05 | 0.1 | 0.05 | 0.05 | 0.05 | 0.05 | 0.05 | 0.1 | 0.1 | 0.05 | 0.1 | 0.1 | 0.8 | 0.8 | 0.1 | MICs [17]: 0.1 µg/mL; MICs [18]: 0.1 µg/mL; MICs [19]: 0.1 µg/mL; MICs [20]: 0.1 µg/mL; MICs [21]: 0.1 µg/mL; MICs ([22]; Y. enterolitica 03): 0.1 µg/mL; MICs [23]: 0.4 µg/mL; MICs [24]: 0.1 µg/mL; MICs ([25]; Staphylococcus epidermis): 3.2 µg/mL; MICs [26]: 1.6 µg/mL; MICs [27]: 0.2 µg/mL; MIC of purified Bacteriocins and Antibiotic [31]: 0.4 mg/L
B1 | 12,800 AU/ml | 12,800 AU/ml | 0.05 | 0.1 | 0.05 | 0.05 | 0.05 | 0.05 | 0.05 | 0.05 | 0.1 | 0.05 | 0.05 | 0.05 | 0.05 | 0.05 | 0.05 | 0.2 | 0.4 | 1.6 | MIC [17]: 200 mg/L; MIC [18]: 400 mg/L; MIC [19]: 200 mg/L; MIC [20]: 200 mg/L; MIC [21]: 100 mg/L; MIC ([22]; Y. enterocolitica 03): 100 mg/L; MIC [23]: 100 mg/L; MIC [24]: 100 mg/L; MIC ([25]; Staphylococcus epidermidis): 1600 mg/L; MIC [26]: 3200 mg/L; MIC [27]: 100 mg/L; MIC of purified Bacteriocins and Antibiotic [31]: 1.6 mg/L
